Measured values: paper PMC10378394 (Current Issues in Molecular Biology, 2023)

Key:
[1] = target: IGF-1R(h) (Homo sapiens, UniProt P08069); test: Eurofins kinase assay
[2] = system: MC38 tumor tissue; test: Immunofluorescence of tumor tissue; format: in vivo, mouse; details: MC38 tumors of treated mice
Protocol: Immunofluorescence staining was performed on tumor tissues. First, tumor tissue fixation was performed using 4% paraformaldehyde (Sigma-Aldrich, #HT5011). Next, heat-induced epitope retrieval was performed by incubating the tissue in 10 mM sodium citrate for 10 min. Subsequently, permeabilization was achieved by treating the tissue with 0.2% Triton X-100 (Sigma-Aldrich, #X100) for 5 min. To block nonspecific binding, the tissue was incubated in 5% skim milk for 40 min. Primary antibodies, including FOXP3 (eBioscience, San Diego, CA, USA, #11-5773-82), CD8 (eBioscience #53-0081-82), CD31 (Abcam, Cambridge, UK, #ab28364), F480 (Abcam #ab6640), CD163 (Abcam #ab182422), and CD206 (Abcam #ab64693), were used. The secondary antibodies used were FITC-conjugated AffiniPure F(ab’)2 fragment goat anti-rat IgG (H + L) (Jackson ImmunoResearch, West Grove, PA, USA, #112-096-003) and Cy3-conjugated AffiniPure F(ab’)2 fragment goat anti-rabbit IgG (H + L) (Jackson ImmunoResearch #111-166-003). The stained tissue was mounted using ProLong™ Gold Antifade Mountant with DAPI (Invitrogen, Waltham, MA, USA) #14-5773-82). Fluorescent images of the samples were captured using the Agilent BioTek Cytation 1 device. The images were analyzed using the Gen5 program (Version3, BioTek, Winooski, VT, USA) to extract relevant data and perform quantitative analysis.

[3] = target: T1, ARAF (Homo sapiens, UniProt P10398); test: KiNativ cell-based kinase assay in HCT116; design: purchased Eurofins (Poitiers, France); details: HCT116, full-length protein; read-out: Binding Affinities in HCT116 (EC50)
T1 sequence (P10398 1-606): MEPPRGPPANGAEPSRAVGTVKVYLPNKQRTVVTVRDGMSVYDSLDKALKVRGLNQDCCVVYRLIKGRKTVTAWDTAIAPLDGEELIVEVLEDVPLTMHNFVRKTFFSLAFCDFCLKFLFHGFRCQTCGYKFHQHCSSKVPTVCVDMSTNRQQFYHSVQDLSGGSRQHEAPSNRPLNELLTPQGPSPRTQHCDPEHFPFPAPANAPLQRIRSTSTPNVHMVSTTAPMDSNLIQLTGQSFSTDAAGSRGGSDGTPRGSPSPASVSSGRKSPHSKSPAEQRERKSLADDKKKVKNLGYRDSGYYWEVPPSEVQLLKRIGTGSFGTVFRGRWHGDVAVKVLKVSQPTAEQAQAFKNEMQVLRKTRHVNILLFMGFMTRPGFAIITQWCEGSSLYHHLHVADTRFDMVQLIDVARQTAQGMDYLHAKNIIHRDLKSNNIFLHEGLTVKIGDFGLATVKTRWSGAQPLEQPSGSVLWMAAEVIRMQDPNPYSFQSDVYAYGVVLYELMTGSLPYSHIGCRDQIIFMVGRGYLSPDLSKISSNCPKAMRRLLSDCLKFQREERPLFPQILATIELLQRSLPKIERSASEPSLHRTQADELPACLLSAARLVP
Protocol: (§1) Kinase selectivity profiling in cells was carried out using the KiNativ assay developed by ActivX Biosciences (La Jolla, CA, USA). HCT 116 cells were utilized for the experiment. […] Following the treatment, the cells were lysed, and the lysates were processed for further analysis. Probe labeling was performed using the lysates, and the labeled samples were subjected to LC/MS-MS (Liquid Chromatography/Mass Spectrometry) analysis.

[4] = target: BRAF (Homo sapiens, UniProt P15056); test: KiNativ cell-based kinase assay in HCT116; design: purchased Eurofins (Poitiers, France)
Protocol: as §1

[5] = Tolerability in mouse xenograft experiments; format: in vivo
Protocol: (§2) Human-derived colorectal cancer cell lines, LS513, HCT-116, and HT29, were subcutaneously transplanted into 6-week-old female BALB/c nude mice to establish tumor models. Additionally, the mouse cancer cell line MC38 was subcutaneously transplanted into 6-week-old female and C57BL/6 mice to induce tumor formation. […]. The treatments were administered orally once daily for 2 weeks based on the growth rate observed in the vehicle group. Tumor volume was evaluated three times a week using the formula Tumor volume (TV) = (tumor short diameter ^2 × tumor long diameter)/2. The body weight of the mice was measured three times a week to assess potential toxicity in vivo. […]

[6] = system: HT29 (BRAF V600E); test: Cell proliferation assay (CellTiter-Glo); details: Homo sapiens, HT-29, 72 h
Protocol: To assess cell viability, the CellTiter-Glo Luminescent Cell Viability Assay Reagent (Promega, Fitchburg, WI, USA) was added to each well. The assay measured ATP levels as an indicator of cell viability. All data points were normalized to the control samples treated with dimethyl sulfoxide when determining IC50 values. Statistical calculations and data analysis, including IC50 determination, were performed using GraphPad Prism software.

[7] = system: MC38 syngeneic tumor; test: In vivo efficacy, syngeneic model; design: species or system C57BL/6 mice; details: 80 mg/kg po QD
Protocol: as §2

[8] = target: Yes(h) (Homo sapiens, UniProt P07947); test: Eurofins kinase assay
[9] = target: PKD2(h) (Homo sapiens, UniProt Q9BZL6); test: Eurofins kinase assay
Chain of PKD2(h) (Q9BZL6 whole entry): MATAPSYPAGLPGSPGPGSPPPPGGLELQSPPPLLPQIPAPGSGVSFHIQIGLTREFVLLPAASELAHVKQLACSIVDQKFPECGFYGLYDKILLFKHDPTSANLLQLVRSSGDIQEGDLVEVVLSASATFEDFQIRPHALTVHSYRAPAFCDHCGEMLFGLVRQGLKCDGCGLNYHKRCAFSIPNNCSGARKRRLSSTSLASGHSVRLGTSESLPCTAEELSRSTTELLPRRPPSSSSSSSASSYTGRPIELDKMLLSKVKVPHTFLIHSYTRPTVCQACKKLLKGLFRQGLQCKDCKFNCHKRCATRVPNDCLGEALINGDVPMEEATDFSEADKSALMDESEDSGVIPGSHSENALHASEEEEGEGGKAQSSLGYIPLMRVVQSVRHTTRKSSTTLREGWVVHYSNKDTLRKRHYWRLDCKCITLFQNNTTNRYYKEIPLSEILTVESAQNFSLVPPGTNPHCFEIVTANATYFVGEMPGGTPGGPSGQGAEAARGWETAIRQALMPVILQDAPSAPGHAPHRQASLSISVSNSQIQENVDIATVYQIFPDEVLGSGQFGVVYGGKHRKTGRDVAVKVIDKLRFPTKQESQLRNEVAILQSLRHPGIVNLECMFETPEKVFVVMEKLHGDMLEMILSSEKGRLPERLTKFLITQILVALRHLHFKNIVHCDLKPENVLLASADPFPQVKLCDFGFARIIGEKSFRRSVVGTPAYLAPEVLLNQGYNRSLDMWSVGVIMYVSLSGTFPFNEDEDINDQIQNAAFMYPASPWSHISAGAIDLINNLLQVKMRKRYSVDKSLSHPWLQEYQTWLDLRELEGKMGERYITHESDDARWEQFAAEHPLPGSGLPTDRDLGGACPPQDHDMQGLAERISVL

Chain of BRAF (P15056 whole entry): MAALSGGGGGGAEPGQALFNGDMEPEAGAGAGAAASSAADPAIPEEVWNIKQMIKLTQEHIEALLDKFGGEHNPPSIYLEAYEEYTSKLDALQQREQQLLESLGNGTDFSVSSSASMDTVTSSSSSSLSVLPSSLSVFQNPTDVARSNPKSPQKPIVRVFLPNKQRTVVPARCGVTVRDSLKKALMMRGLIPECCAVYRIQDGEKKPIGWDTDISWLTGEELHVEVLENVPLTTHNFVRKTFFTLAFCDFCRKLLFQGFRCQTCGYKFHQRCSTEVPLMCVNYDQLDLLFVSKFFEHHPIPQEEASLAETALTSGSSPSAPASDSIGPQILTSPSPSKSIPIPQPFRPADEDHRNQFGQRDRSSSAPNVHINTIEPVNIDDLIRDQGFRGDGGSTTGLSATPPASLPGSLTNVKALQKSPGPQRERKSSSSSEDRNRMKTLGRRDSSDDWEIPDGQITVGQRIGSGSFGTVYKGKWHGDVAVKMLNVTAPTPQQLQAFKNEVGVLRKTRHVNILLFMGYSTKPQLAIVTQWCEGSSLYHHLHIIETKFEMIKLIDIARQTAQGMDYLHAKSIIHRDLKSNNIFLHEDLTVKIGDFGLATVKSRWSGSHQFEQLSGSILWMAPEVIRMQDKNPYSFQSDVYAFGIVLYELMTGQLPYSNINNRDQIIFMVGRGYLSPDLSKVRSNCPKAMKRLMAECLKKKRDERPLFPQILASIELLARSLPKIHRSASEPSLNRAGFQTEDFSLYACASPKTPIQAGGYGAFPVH
Chain of Yes(h) (P07947 whole entry): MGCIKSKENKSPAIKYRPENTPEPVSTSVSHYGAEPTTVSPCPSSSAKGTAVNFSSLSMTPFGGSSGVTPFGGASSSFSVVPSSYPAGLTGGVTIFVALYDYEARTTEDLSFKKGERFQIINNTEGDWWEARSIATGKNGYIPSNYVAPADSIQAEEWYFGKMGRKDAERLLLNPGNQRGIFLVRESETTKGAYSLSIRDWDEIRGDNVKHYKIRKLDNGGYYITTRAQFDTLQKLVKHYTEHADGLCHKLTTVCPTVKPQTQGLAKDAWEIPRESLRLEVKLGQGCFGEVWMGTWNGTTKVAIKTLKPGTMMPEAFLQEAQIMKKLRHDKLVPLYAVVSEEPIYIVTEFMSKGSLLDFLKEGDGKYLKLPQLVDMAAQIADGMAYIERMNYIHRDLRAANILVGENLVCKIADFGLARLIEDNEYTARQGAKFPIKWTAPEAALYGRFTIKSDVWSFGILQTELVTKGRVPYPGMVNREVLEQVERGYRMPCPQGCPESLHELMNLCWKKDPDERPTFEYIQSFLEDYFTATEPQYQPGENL
Chain of IGF-1R(h) (P08069 31-1367): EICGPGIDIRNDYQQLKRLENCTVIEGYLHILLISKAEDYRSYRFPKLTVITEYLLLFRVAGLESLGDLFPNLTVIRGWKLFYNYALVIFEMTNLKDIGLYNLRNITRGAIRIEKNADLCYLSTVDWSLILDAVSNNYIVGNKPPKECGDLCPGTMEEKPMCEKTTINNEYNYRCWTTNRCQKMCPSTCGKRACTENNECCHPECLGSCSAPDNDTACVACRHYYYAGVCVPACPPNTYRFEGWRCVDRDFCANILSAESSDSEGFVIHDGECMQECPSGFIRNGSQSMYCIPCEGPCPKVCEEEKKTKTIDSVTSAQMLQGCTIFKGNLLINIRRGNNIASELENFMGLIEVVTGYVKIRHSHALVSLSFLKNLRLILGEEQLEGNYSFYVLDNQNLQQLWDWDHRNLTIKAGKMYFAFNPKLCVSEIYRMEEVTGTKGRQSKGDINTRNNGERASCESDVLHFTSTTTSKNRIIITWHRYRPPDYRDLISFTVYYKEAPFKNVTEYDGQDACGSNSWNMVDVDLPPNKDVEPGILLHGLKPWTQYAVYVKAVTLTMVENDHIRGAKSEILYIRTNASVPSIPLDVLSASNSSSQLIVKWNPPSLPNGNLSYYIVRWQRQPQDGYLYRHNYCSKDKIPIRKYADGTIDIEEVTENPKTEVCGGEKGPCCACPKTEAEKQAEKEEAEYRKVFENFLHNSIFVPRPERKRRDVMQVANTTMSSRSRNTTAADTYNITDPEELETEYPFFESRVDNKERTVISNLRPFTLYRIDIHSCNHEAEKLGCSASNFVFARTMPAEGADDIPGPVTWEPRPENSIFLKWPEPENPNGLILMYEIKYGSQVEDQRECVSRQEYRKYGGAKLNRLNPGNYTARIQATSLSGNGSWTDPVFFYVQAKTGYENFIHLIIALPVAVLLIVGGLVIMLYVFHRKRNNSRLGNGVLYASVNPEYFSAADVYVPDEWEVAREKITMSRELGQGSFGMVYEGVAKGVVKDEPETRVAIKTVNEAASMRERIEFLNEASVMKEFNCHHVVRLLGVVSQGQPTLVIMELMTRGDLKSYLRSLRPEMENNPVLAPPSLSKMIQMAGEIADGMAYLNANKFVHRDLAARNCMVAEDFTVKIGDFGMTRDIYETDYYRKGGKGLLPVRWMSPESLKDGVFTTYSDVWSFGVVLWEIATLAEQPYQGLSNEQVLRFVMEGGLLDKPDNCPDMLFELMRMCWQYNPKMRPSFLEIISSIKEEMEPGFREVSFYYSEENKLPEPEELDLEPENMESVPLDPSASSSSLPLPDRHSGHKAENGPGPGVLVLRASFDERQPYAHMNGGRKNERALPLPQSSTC

## O=C(Nc1cc(Nc2ncccc2-c2ncnc3[nH]cnc23)ccc1F)c1cc(C(F)(F)F)cc(C(F)(F)F)c1 [SJ-C1044, N-(5-(3-(9H-purin-6-yl)pyridin-2-ylamino)-2-fluorophenyl)-3,5-bis(trifluoromethyl)benzamide]
[1]
  inhibition at 10 µM: -24%
[2]
  CD31 staining (angiogenesis): reduced
  CD163+ or CD206+ staining (M2 macrophages): significant decrease
  F4/80+ staining intensity (pan macrophage marker): notably reduced
  infiltration of CD8+ T cells: increase
  population of FOXP3+ cells: reducing
[3]
  EC50: > 10 µM
[4]; HCT116, full-length protein, read-out: Binding Affinities in HCT116 (EC50)
  EC50: 1.3 µM
[4]; HCT 116 cells, 2 h, 10 µM, read-out: inhibition of probe binding
  inhibition at 10 µM: 86%
[5]
  toxicity and weight loss: no signs of toxicity or significant weight loss
[6]
  GI50: 0.247 µM
[7]; 14 days
  TGI: 88%
[7]; compared to the control
  MC38 tumor growth in vivo: completely inhibited
[8]
  inhibition at 10 µM: 17%
[9]
  inhibition at 10 µM: 3%
